The values that follow come from ChEMBL document CHEMBL3044835, “Pachyelasides A-D, novel molluscicidal triterpene saponins from Pachyelasma tessmannii” (2005).

Each structure is given as a SMILES string. Converted amounts (≈) assume the structure as drawn.

In this assay the test system is Biomphalaria glabrata. Nature of the assay: Molluscicidal activity against Biomphalaria glabrata assessed as heartbeat measured after 24 hr. The class given is functional. The note with it: read-out: LD50 (the source's name).
`CC1(C)CC[C@]2(C(=O)O)CC[C@]3(C)C(=CC[C@@H]4[C@@]5(C)CC[C@H](O[C@@H]6O[C@H](CO)[C@@H](O)[C@H](O)[C@H]6O[C@@H]6O[C@H](CO)[C@@H](O)[C@H](O[C@@H]7O[C@H](CO)[C@@H](O)[C@H](O)[C@H]7O[C@@H]7O[C@H](CO)[C@@H](O)[C@H](O)[C@H]7O)[C@H]6O)C(C)(C)[C@@H]5CC[C@]43C)[C@@H]2C1` [PACHYELASIDE B]: the LC50 worked out at 2 µg/mL (≈ 1.81 µM).

Consider `CC1(C)C[C@H]2C3=CC[C@@H]4[C@@]5(C)CC[C@H](O[C@@H]6O[C@H](CO)[C@@H](O[C@@H]7OC[C@@H](O)[C@H](O)[C@H]7O)[C@H](O)[C@H]6O[C@@H]6O[C@H](CO)[C@@H](O)[C@H](O[C@@H]7O[C@H](CO)[C@@H](O)[C@H](O)[C@H]7O[C@@H]7O[C@H](CO)[C@@H](O)[C@H](O)[C@H]7O)[C@H]6O)C(C)(C)[C@@H]5CC[C@@]4(C)[C@]3(C)CC[C@@]2(C(=O)O)C[C@@H]1OC(=O)/C=C/c1ccccc1` [PACHYELASIDE D], for which the LC50 was 8 µg/mL (≈ 5.78 µM). `CC1(C)C[C@H]2C3=CC[C@@H]4[C@@]5(C)CC[C@H](O[C@@H]6O[C@H](CO)[C@@H](O)[C@H](O)[C@H]6O[C@@H]6O[C@H](CO)[C@@H](O)[C@H](O[C@@H]7O[C@H](CO)[C@@H](O)[C@H](O)[C@H]7O[C@@H]7O[C@H](CO)[C@@H](O)[C@H](O)[C@H]7O)[C@H]6O)C(C)(C)[C@@H]5CC[C@@]4(C)[C@]3(C)CC[C@@]2(C(=O)O)C[C@@H]1OC(=O)/C=C/c1ccccc1` [PACHYELASIDE-A]: the LC50 was 2 µg/mL (≈ 1.6 µM). Turning to `CC1(C)C[C@H]2C3=CC[C@@H]4[C@@]5(C)CC[C@H](O[C@@H]6O[C@H](CO)[C@@H](O[C@@H]7OC[C@@H](O)[C@H](O)[C@H]7O)[C@H](O)[C@H]6O[C@@H]6OC[C@@H](O)[C@H](O[C@@H]7O[C@H](CO)[C@@H](O)[C@H](O)[C@H]7O[C@@H]7O[C@H](CO)[C@@H](O)[C@H](O)[C@H]7O)[C@H]6O)C(C)(C)[C@@H]5CC[C@@]4(C)[C@]3(C)CC[C@@]2(C(=O)O)C[C@@H]1OC(=O)/C=C/c1ccccc1` [PACHYELASIDE C], the LC50 came out at 2 µg/mL (≈ 1.48 µM).
